The results in this text go back to patent US20250154193A1, “STEROID COMPOUND, AND PREPARATION METHOD THEREFOR AND APPLICATION THEREOF” (CHOLESGEN (SHANGHAI) CO., LTD., priority 2022, published 2025).

Molecules are shown by their SMILES.

By IC50 is commonly meant the midpoint of a concentration-inhibition curve.

In this assay the test system is SREBP pathway. Kind of assay: SREBP luciferase reporter gene system (SRE-luciferase assay) in Huh-7/SRE-Luc cells. In kind it is cell-based. As to conditions: Homo sapiens, sterol-deficient medium, compound treatment 16 hours, luciferase/GFP ratio. Here is the method: Huh-7/SRE-Luc, a human hepatocellular carcinoma cell line, was grown in a culture medium containing DMEM, 10% fetal bovine serum, 100 units/mL penicillin, 100 µg/mL streptomycin, and 200 μg/mL G418.
The Huh-7/SRE-Luc cell line is a human hepatocellular carcinoma cell line Huh-7 stably expressing LDLR promoter-luciferase and green fluorescent protein (GFP). The LDLR promoter region contains a sterol regulatory element (SRE) that can effectively and sensitively respond to the regulation of the transcription factor SREBP. The GFP signal serves as an internal reference to indicate changes in cell number. Therefore, this cell line can be used to screen for active small molecules that regulate the SREBP signaling pathway. […] Cells were incubated in a sterol-deficient medium (5% lipoprotein-deficient serum, 2 μM Lovastatin, 10 μM mevalonate) and treated with corresponding concentrations of compounds for 16 hours. After compound treatment, the cells were lysed with lysis buffer (E397A, Promega), followed by the addition of luciferase substrate (E1500, Promega). The SRE-driven luciferase activity was measured using a BioTek Synergy HTX microplate reader (including but not limited to this type of instrument). The fluorescence intensity of enhanced green fluorescent protein (EGFP) was also measured using the BioTek microplate reader (including but not limited to this type of instrument) and used as an internal reference. The ratio of SRE-driven luciferase activity to GFP fluorescence intensity was used as an indicator of SREBP pathway activity. The test data of each test compound was analyzed using Prism software to obtain the IC50 parameter of the compound.
The inhibitory effect of the compounds of the present disclosure on the SREBP pathway was tested by the method of bioassay example 2. The concentration gradient of each compound was designed as 0.01, 0.03, 0.1, 0.3, 1.0, 3.0, and […], with DMSO as a vehicle control.
With `C[C@H](CCCC1(O)CC1)[C@H]1CC[C@H]2[C@H]3[C@H](CC[C@]12C)[C@@]1(C)CC[C@H](O)C[C@@H]1CC3(F)F` [compound 288, (1R,3aS,5aR,7S,9aS,11aR)-4,4-difluoro-1-[(2R)-5-(hydroxycyclopropyl)pentan-2-yl]-9a,11a-dimethylhexadecahydro-1H-cyclopenta[1,2-a]phenanthrene-7-ol], the concentration for half-maximal inhibition (IC50) was determined as 0.308 µM.

As to `C[C@H](CCCC(O)c1c(F)cccc1F)[C@H]1CC[C@H]2[C@@H]3C(=O)C[C@H]4[C@@H](O)[C@@H](O)CC[C@]4(C)[C@H]3CC[C@]12C` (stereo partly drawn) [compound 289, 24-[(2,6-difluorophenyl)(hydroxy)methyl]-4β-hydroxy-3β-hydroxy-5α-cholan-7-one], the IC50 is 0.117 µM. Regarding `CC(O)C1CC[C@@]2(C)[C@@H](CC[C@@H]3[C@@H]2CC[C@]2(C)[C@@H]([C@H](C)CCCC(C)(C)O)CC[C@@H]32)C1` (stereo partly drawn) [compound 290, 3-(1-hydroxyethyl)-5α-cholest-25-ol], the IC50 came to 0.699 µM.

`C[C@H](CCCC(C)(C)O)[C@H]1CC[C@H]2[C@@H]3CC[C@H]4C(F)(F)[C@@H](O)CC[C@]4(C)[C@H]3CC[C@]12C` [compound 291, (1R,3aS,3bS,5aR,7S,9aR,9bS,11aR)-6,6-difluoro-1-[(2R)-6-hydroxy-6-methylheptan-2-yl]-9a,11a-dimethylhexadecahydro-1H-cyclopenta[1,2-a]phenanthrene-7-ol]: the IC50 came out at 0.065 µM.

As for `C[C@H](CCCC(C)(C)O)[C@H]1CC[C@H]2[C@@H]3CC[C@H]4C[C@@H](OC(=O)CO)CC[C@]4(C)[C@H]3CC[C@]12C` [compound 292, (1R,3aS,3bR,5aS,7S,9aS,9bS,11aR)-1-[(2R)-6-hydroxy-6-methylheptan-2-yl]-9a,11a-dimethylhexadecahydro-1H-cyclopenta[1,2-i]phenanthren-7-yl hydroxyacetate], the IC50 was determined as 0.171 µM. In the case of `C[C@H](CCCC(C)(C)O)[C@H]1CC[C@H]2[C@@H]3CC[C@H]4C[C@@H](OC(=O)CC(=O)O)CC[C@]4(C)[C@H]3CC[C@]12C` [compound 293, 3-{[(1R,3aS,3bR,5aS,7S,9aS,9bS,11aR)-1-[(2R)-6-hydroxy-6-methylheptan-2-yl]-9a,11a-dimethylhexadecahydro-1H-cyclopenta[1,2-a]phenanthren-7-yl]oxy}-3-oxopropanoic acid], the IC50 was determined as 0.136 µM. With `C[C@H](CCCC(C)(C)O)[C@H]1CC[C@H]2[C@@H]3CC[C@H]4C[C@@H](OC(=O)CCC(=O)O)CC[C@]4(C)[C@H]3CC[C@]12C` [compound 294, 4-{[(1R,3aS,3bR,5aS,7S,9aS,9bS,11aR)-1-[(2R)-6-hydroxy-6-methylheptan-2-yl]-9a,11a-dimethylhexadecahydro-1H-cyclopenta[1,2-a]phenanthren-7-yl]oxy}-4-oxobutanoic acid], the IC50 worked out at 0.139 µM. The figure for `C[C@H](CCCC(C)(C)O)[C@H]1CC[C@H]2[C@@H]3C[C@@H](N)[C@H]4[C@@H](O)[C@@H](O)CC[C@]4(C)[C@H]3CC[C@]12C` [compound 295, 6-amino-5α-cholest-3β,4p,25-triol] is above 10 µM; for `C[C@H](CCCC(O)c1c(F)cccc1F)[C@H]1CC[C@H]2[C@@H]3C(N)C[C@H]4[C@@H](O)[C@@H](O)CC[C@]4(C)[C@H]3CC[C@]12C` (stereo partly drawn) [compound 299, 7-amino-24-[(2,6-difluorophenyl)(hydroxy)methyl]-5α-cholan-3P,4β-diol] it is 4.83 µM.

Consider `C[C@H](CCCC(O)c1c(F)cccc1F)[C@H]1CC[C@H]2[C@H]3[C@H](CC[C@]12C)[C@@]1(C)CC[C@H](O)C(=O)[C@@H]1CC3(F)F` (stereo partly drawn) [compound 301, (1R,3aS,3bS,5aR,7S,9aR,9bS,11aR)-1-[(2R)-6-(2,6-difluorophenyl)-6-hydroxyhexan-2-yl]-4,4-difluoro-7-hydroxy-9a,11a-dimethylhexadecahydro-1H-cyclopenta[1,2-α]phenanthren-6-one], for which the IC50 stood at 0.04 µM. For `C[C@H](CCCC(C)(C)O)[C@H]1CC[C@H]2[C@@H]3CC[C@H]4[C@@H](N)[C@@H](O)CC[C@]4(C)[C@H]3CC[C@]12C` [compound 303, 4-amino-5α-cholest-3β,25-diol], the concentration for half-maximal inhibition (IC50) amounted to 7.08 µM.

With `CC(O)CCC[C@@H](C)[C@H]1CC[C@H]2[C@@H]3CC[C@H]4[C@@H](O)[C@@H](O)CC[C@]4(C)[C@H]3CC[C@]12C` (stereo partly drawn) [compound 304, 24-(1-hydroxyethyl)-5α-cholan-3β,4β-diol], the IC50 is 0.173 µM. The figure for `C[C@H](CCCC(O)c1ccccc1)[C@H]1CC[C@H]2[C@@H]3CC[C@H]4[C@@H](O)[C@@H](O)CC[C@]4(C)[C@H]3CC[C@]12C` (stereo partly drawn) [compound 305, 24-(hydroxyphenylmethyl)-5α-cholan-3β,4β-diol] is 0.119 µM; for `C[C@H](CCCC(C)(C)O)[C@H]1CC[C@H]2[C@@H]3CC[C@H]4CC(C)(O)CC[C@]4(C)[C@H]3CC[C@]12C` (stereo partly drawn) [compound 307, 3-methylcholest-3,25-diol] it is 0.588 µM. With `C[C@H](CCCC(C)(C)O)[C@H]1CC[C@H]2[C@@H]3CC[C@H]4CC(CO)CC[C@]4(C)[C@H]3CC[C@]12C` (stereo partly drawn) [compound 308, 3-(hydroxymethyl)-5α-cholest-25-ol] the figure was 0.979 µM; with `C[C@H](CCCC(C)(C)O)[C@H]1CC[C@H]2[C@@H]3CC[C@H]4CC(C(=O)O)CC[C@]4(C)[C@H]3CC[C@]12C` (stereo partly drawn) [compound 309, 25-hydroxy-5α-cholest-3-carboxylic acid], 8.96 µM; with `C[C@H](CCCC(C)(C)O)[C@H]1CC[C@H]2[C@@H]3CC[C@H]4CC(NS(C)(=O)=O)CC[C@]4(C)[C@H]3CC[C@]12C` (stereo partly drawn) [compound 310, N-[(1R,3aS,3bR,9aS,9bS,11aR)-1-[(2R)-6-hydroxy-6-methylheptan-2-yl]-9a,11a-dimethylhexadecahydro-1H-cyclopenta[1,2-a]phenanthrene-7-yl]methanesulfonamide], 1.41 µM. The figure for `COc1ccccc1C(O)CCC[C@@H](C)[C@H]1CC[C@H]2[C@@H]3CC[C@H]4C[C@@H](O)CC[C@]4(C)[C@H]3CC[C@]12C` (stereo partly drawn) [compound 312, 24-[hydroxy(2-methoxyphenyl)methyl]-5α-cholan-3β-ol] is 0.18 µM.

`C[C@H](CCCC(C)(C)O)[C@H]1CC[C@H]2[C@@H]3CC[C@H]4[C@@H](O)[C@@H](OC(=O)CO)CC[C@]4(C)[C@H]3CC[C@]12C` [compound 313, (1R,3aS,3bS,5aR,6R,7S,9aR,9bS,11aR)-6-hydroxy-1-[(2R)-6-hydroxy-6-methylheptan-2-yl]-9a,11a-dimethylhexadecahydro-1H-cyclopenta[1,2-i]phenanthren-7-yl hydroxyacetate]: the concentration for half-maximal inhibition (IC50) was 0.07 µM. With `C[C@H](CCCC(O)c1ccc(F)cc1)[C@H]1CC[C@H]2[C@@H]3CC[C@H]4[C@@H](O)[C@@H](O)CC[C@]4(C)[C@H]3CC[C@]12C` (stereo partly drawn) [compound 316, 24-[(4-fluorophenyl)(hydroxy)methyl]-5α-cholan-3β,4β-diol] the figure was 0.1 µM; with `COc1ccccc1C(O)CCC[C@@H](C)[C@H]1CC[C@H]2[C@@H]3C(=O)C[C@H]4[C@@H](O)[C@@H](O)CC[C@]4(C)[C@H]3CC[C@]12C` (stereo partly drawn) [compound 320, 4β-hydroxy-3β-hydroxy-24-[hydroxy(2-methoxyphenyl)methyl]-5α-cholan-7-one], 0.16 µM. With `COC(=O)C1CC[C@@]2(C)[C@@H](CC[C@@H]3[C@@H]2CC[C@]2(C)[C@@H]([C@H](C)CCCC(C)(C)O)CC[C@@H]32)C1` (stereo partly drawn) [compound 321, methyl 25-hydroxy-5α-cholest-3-carboxylate] the figure was 7.2 µM. The figure for `C[C@H](CCCC(O)c1ccccc1Cl)[C@H]1CC[C@H]2[C@@H]3CC[C@H]4[C@@H](O)[C@@H](O)CC[C@]4(C)[C@H]3CC[C@]12C` (stereo partly drawn) [compound 322, 24-[(2-chlorophenyl)(hydroxy)methyl]-5α-cholan-3β,4β-diol] is 0.61 µM; for `Cc1ccccc1C(O)CCC[C@@H](C)[C@H]1CC[C@H]2[C@@H]3CC[C@H]4[C@@H](O)[C@@H](O)CC[C@]4(C)[C@H]3CC[C@]12C` (stereo partly drawn) [compound 323, 24-[hydroxy(2-methylphenyl)methyl]-5α-cholan-3β,4β-diol] it is 0.25 µM.
